In patent US20250235472A1, “USE OF 6-PHOSPHOGLUCONIC ACID AND DERIVATIVE THEREOF IN PREPARING MEDICAMENT FOR PREVENTING OR TREATING GLYCOMETABOLISM DISORDER DISEASES” (FUDAN UNIVERSITY, priority 2022, published 2025):

Assays:
[1] = tested on: type 1 diabetes mellitus mice; assay: Random blood glucose level in streptozotocin type 1 diabetes mellitus mouse model; format: in vivo; details: 200 mg/kg at 8 a.m. and 8 p.m. everyday; compared with the normal saline group; FIG. 4
Text: (§1) • 1. Blood glucose test strips and blood glucose meter, from Eli Lilly and Company, USA; • 2. C57 B6/J Female mice, from Nanjing Gem Pharmaceutical Co., Ltd.; • 3. Streptozotocin, from Sigma-Aldrich Company, USA; • 4. Ultrasensitive insulin kit, from ALPCO Company, USA; • 5. Insulin antibody, from DAKO Company, USA; • 6. Glucagon antibody, from ABCAM Company, USA; and • 7. Other reagents required for immunofluorescence assay were purchased from Shanghai Sangon Technology Co., Ltd.
(§2) An 8-week-old C57B6/J female mouse was administered intraperitoneally with 200 mg/kg of streptozotocin solution. After 5 days of injection, the random blood glucose level of the mice was measured, mice with blood glucose levels higher than 20 mmol/L were selected and randomly divided into two groups for subsequent experiments.
(§3) Type 1 diabetes mellitus mouse models were administered 200 mg/kg of 6-phosphogluconic acid methyl ester (compound 1-1) or physiological saline at 8 a.m. and 8 p.m. everyday. The random blood glucose level of each mouse was measured once a day. Before the end of the experiment, the mice were fasted for 16 hours, and a small amount of peripheral blood was taken from the tail vein.

[2] = tested on: type 1 diabetes mellitus mice; assay: Insulin concentration in peripheral blood measured by ultrasensitive insulin kit; format: in vivo, mouse; details: 200 mg/kg twice daily; fasted for 16 hours; compared with the normal saline group; FIG. 6
Text: as §1, §2, §3
The concentration of insulin in peripheral blood of mice was measured by an ultrasensitive insulin kit.

islet β-cells = assay: Immunofluorescence assay of regeneration of islet β-cells in type 1 diabetes mellitus mice; format: in vivo, mouse; details: 200 mg/kg twice daily, compared with the normal saline group, FIG. 5
Text: as §1, §2, §3
Immunofluorescence assay was used to measure the regeneration of islet β-cells of type 1 diabetes mellitus mice.

## COC(=O)[C@H](O)[C@@H](O)[C@H](O)[C@H](O)COP(=O)(O)O [Compound 1-1, 6-phosphogluconic acid methyl ester]
[1]
  random blood glucose level: significantly reduced
[2]
  concentration of fasting insulin in peripheral blood: significantly increased
Islet β-cells
  number of islet β-cells (regeneration): significantly increased
